One data set deals with CYP1A2 and CYP2C19. It is filed as biochemical. Here is the method:
The bioassay was performed in a 96-well plate. 80 μL of sample is added to wells in triplicate. […] After the preparation, 10 μL of enzyme mixture were added to each plate. After incubating at room temperature 10 μL of substrate mixture (5 μM of substrate EOMCC and 30 μM Vivid® NADP^+ diluted in working buffer) was added. The plate was incubated 30 minutes at 30° C. and when time passed, fluorescence signal was measured with a fluorometric reader, 410 nm and 460 nm were the excitation and emission wavelengths, respectively. A blank sample, buffer solution, was measured at the same time and the reduction of the signal, inhibition of enzyme activity, was calculated and associated with the presence of contaminants.

The target in data set [1] is T1, CYP3A4 (Homo sapiens, UniProt P08684). It is filed as biochemical. The settings on record: CYP3A4, DBF substrate; concentration providing 20% inhibition (IC20). As for the experimental part: (§1) The bioassay was performed in a 96-well plate. 50 μL of a solution containing PAHs or BFRs is added to wells in triplicate. […] After incubating at room temperature 10 μL of substrate mixture (5 μM of substrate (EOMCC for CYP1A2, BOMCC for CYP2B6 or DBF for CYP3A4) and 30 μM Vivid® NADP^+ diluted in working buffer) was added. The plate was incubated 30 minutes at 25° C. and when time passed, fluorescence signal was measured with a fluorometric reader, 410/490 nm and 460/520 nm were the excitation and emission wavelengths, respectively. A blank sample, buffer solution, was measured at the same time and the reduction of the signal, inhibition of enzyme activity, was calculated and associated with the presence of contaminants.

For data set [2], the target named is T1, CYP3A4. It is filed as biochemical. The conditions noted are these: for Inhibition percentage I (%): lateral flow reader; for Limit of detection: CYP3A4 lateral flow, concentration providing 20% of inhibition, estimated. As for the experimental part: The metabolism of two different fluorescent substrates was used to determine the percent of inhibition of CYP3A4 as response to the contaminant concentrations. The enzymatic reactions were carried out in 96-well plates adding 80 μL of potassium phosphate buffer (100 mM, pH 8.0) or 100 ng/mL of standard solutions in duplicates. Both brominated compounds were prepared in potassium phosphate buffer (100 mM, pH 8.0) and tested as inhibitors of CYP3A4 activity. […] Subsequently, 10 μL of enzyme mixture were added to each well, homogenised and allowed to pre-incubate during 10 minutes at room temperature. Two different substrate mixtures were used in combination with brominated molecules. To evaluate the inhibition promoted by BDE-100, 10 μL of a substrate mixture containing 2 μM of DBF and 30 μM Vivid® NADP+ in potassium phosphate buffer (100 mM, pH8.0), were added to the appropriated wells. The inhibitory effect of HBCD concentration was tested for a substrate mixture, containing 2 μM of DBOMF and 30 μM Vivid® NADP+ prepared in potassium phosphate buffer (100 mM, pH8.0), from which 10 μL were added to the appropriated wells. After the addition of the respective substrate probes, the plate was newly incubated at 25° C. for 60 minutes. The resulting reaction broths were diluted 10 and 20 times in buffer, for respectively DBF and BDE-100, and for DBOMF and HBCD reactions. Finally, 1.5 μL of diluted broths were pipetted as a line onto nitrocellulose membranes and the fluorometric measurements carried out at a lateral flow reader (ESEQuant LR3, QIAGEN) with a fluorometric channel of 470 nm and 520 nm as excitation and emission wavelengths, respectively. A blank sample, buffer solution, was measured at the same time and the reduction of the signal, inhibition of enzyme activity, was calculated and associated with the presence of each BDE, as shown in Table 5.
Considering the signal intensity developed for different levels of the contaminant molecules, the concentration providing 20% of inhibition was selected as limit of detection, estimated to be 36 ng/mL and 14 ng/mL for BDE-100 and HBCD, respectively.

Another data set addresses CYP2B10 (Mus musculus, UniProt P12791). The conditions noted are these: CYP2B10, 3 μM BOMCC; concentration that induces 20% inhibition (Table 8).
Data set [3] deals with T1, CYP3A4. The settings on record: pH 8.
Data set [4] addresses T2, CYP2B6 (Homo sapiens, UniProt P20813). The settings on record: pH 7.4.
In data set [5] the target is T2, CYP2B6. It is filed as biochemical. Here is the method: as §1
Data set [6] deals with T1, CYP3A4. It is filed as biochemical. The conditions noted are these: CYP3A4 electrochemical biosensor, 50 μM progesterone, estimated. As for the experimental part:
The working electrodes (WE) of screen-printed carbon electrodes (SPCE) (C110, from Methrom-Dropsens), were modified with 3 μL suspension of 1 mg/mL of single-walled carbon nanotubes. After chloroform evaporation, 5 μL of a 0.08 nmol/mL solution of CYP3A4 (recombinant, expressed in E. Coli from Sigma-Aldrich) was deposited onto the modified WE surface and incubated overnight at 4° C. 100 mM of potassium phosphate buffer saline (PBS) at pH 8.0, containing 50 mM of potassium chloride, was used to prepare the standards, as well as a supporting electrolyte for the electrochemical measurements. Aliquots (60 μL) of 50 μM progesterone solutions containing 0, 50, 100, 200 and 300 ng/mL of HBCD, were placed onto the working area of the SPCE by drop-casting, incubated for 2 minutes at room temperature and the electrochemical measurements performed. For each sample, one cyclic voltammetric scan was carried out, sweeping the potential from −0.75 V to 0.30 V at 0.02 V/s. The peak height of the cathodic peaks generated near to −0.55 V was registered and HBCD presence, calculated using as reference the peak of the blank assay (buffer solution). The electrochemical signal registered at CYP3A4-based biosensor, respond to the concentration of HBCD, allowing to establish the I (%) values for different concentrations of this compound (FIG. 1). Limit of detection was estimated to be 42.8 ng/mL for HBCD.

Setting [7] is: CYP2B6, BOMCC substrate, concentration providing 20% inhibition (IC20).

The values that follow come from US20240060949A1, “BIOSYSTEMS TO DETECT CHEMICAL CONTAMINANTS” (priority 2020, published 2024).

Where two headings read alike, the source gives them in different places.

T2 sequence (P20813 whole entry): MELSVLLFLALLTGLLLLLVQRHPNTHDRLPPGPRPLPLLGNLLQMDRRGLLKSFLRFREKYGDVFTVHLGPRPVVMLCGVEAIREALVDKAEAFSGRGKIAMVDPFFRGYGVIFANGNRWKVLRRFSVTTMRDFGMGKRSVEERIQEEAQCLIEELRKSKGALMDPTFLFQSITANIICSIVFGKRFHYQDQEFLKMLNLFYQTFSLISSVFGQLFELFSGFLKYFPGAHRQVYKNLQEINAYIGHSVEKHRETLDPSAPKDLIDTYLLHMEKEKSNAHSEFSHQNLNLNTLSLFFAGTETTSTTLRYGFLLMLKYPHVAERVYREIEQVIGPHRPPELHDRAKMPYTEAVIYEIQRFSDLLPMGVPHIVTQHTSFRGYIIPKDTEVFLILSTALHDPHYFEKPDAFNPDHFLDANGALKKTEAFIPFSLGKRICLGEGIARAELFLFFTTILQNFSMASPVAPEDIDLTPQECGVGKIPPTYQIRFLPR
T1 sequence (P08684 whole entry): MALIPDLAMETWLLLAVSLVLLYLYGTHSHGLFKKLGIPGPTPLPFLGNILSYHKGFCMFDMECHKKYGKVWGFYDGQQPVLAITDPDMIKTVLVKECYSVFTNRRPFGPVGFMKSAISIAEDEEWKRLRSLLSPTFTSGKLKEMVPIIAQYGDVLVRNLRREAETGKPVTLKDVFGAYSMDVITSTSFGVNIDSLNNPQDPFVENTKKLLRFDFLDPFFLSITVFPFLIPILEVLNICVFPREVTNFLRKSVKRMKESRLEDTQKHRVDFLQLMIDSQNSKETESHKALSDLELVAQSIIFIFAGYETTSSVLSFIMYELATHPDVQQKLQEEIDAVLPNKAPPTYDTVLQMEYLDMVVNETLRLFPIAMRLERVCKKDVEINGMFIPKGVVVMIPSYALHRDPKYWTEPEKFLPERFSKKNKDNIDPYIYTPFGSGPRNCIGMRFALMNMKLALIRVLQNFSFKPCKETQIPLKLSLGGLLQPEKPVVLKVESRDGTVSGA
Sequence of CYP2B10 (P12791 whole entry): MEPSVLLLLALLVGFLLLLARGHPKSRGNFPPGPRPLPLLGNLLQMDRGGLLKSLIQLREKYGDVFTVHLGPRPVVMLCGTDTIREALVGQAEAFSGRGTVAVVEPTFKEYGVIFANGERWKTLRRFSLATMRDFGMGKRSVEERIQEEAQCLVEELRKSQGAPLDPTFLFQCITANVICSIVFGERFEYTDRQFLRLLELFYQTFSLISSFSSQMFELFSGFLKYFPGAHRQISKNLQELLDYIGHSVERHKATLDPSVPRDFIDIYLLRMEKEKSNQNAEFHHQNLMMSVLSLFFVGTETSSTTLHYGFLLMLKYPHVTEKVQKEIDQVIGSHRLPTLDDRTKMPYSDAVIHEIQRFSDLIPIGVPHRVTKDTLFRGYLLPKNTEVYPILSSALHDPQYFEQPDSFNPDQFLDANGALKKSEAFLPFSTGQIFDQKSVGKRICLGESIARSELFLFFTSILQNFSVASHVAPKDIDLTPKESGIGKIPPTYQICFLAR

Turning to 13,19-didesmethyl C spirolide, the Limit of detection in the data set with CYP1A2 and CYP2C19 stood at 10 µg/L.

Regarding `C=C(C[C@@]12C[C@@H](C)C[C@H](O1)[C@H]1O[C@]3(C[C@H]1O2)NC[C@H](C)C[C@@H]3C)[C@H]1O[C@@](O)([C@@H](O)[C@@H]2C[C@H]3O[C@@]4(CC[C@]5(CC=C[C@@H](/C=C/CCC(=O)O)O5)O4)[C@H](C)C[C@H]3O2)[C@H](C)C[C@@H]1C` [Azaspiracid-1], the Limit of detection in the data set with CYP1A2 and CYP2C19 (CYP1A2 and CYP2C19, 5 μM EOMCC, concentration that induces 20% inhibition) was found to be 3 µg/L.

Consider `Brc1ccc(Oc2ccc(Br)cc2Br)cc1` [BDE-28, 2,4,4′-Tribromodiphenyl ether], for which the Limits of detection at CYP3A4 [1] is 100 ng/mL.

As to `Brc1ccc(Oc2ccc(Br)cc2Br)c(Br)c1` [BDE-47, 2,2′,4,4′-Tetrabromodiphenyl ether], at CYP3A4 [1], the Limits of detection came to 5 ng/mL.

On CYP3A4 [1], `Brc1ccc(Oc2cc(Br)c(Br)cc2Br)c(Br)c1` [BDE-99, 2,2′,4,4′,5-Pentabromodiphenyl ether] came in with a Limits of detection of 100 ng/mL.

As to `Brc1ccc(Oc2c(Br)cc(Br)cc2Br)c(Br)c1` [BDE-100, 2,2′,4,4′,6-Pentabromodiphenyl ether], the “Inhibition percentage I (%)” value on CYP3A4 [2] (CYP3A4, 2 μM DBF, 100 ng/ml contaminant) is given as 55.4%. Moreover, the Limit of detection on CYP3A4 [2] (DBF substrate) is 36 ng/mL. At CYP3A4 [1], this compound came in with a Limits of detection of 5 ng/mL.

`Brc1cc(Br)c(Oc2cc(Br)c(Br)cc2Br)cc1Br` [BDE-153, 2,2′,4,4′,5,5′-Hexabromodiphenyl ether] showed a Limits of detection on CYP3A4 [1] of 5 ng/mL.

At CYP3A4 [1], `Brc1cc(Br)c(Oc2cc(Br)c(Br)cc2Br)c(Br)c1` [BDE-154, 2,2′,4,4′,5,6′-Hexabromodiphenyl ether] came in with a Limits of detection of 5 ng/mL.

The compound `Brc1c(Br)c(Br)c(Oc2c(Br)c(Br)c(Br)c(Br)c2Br)c(Br)c1Br` [BDE-209, Decabromodiphenyl ether] showed a Limits of detection on CYP3A4 [1] of 10 ng/mL.

Regarding `[CH3][Hg][Cl]` [Methylmercury], the “Limits of detection CYP2B10” value at CYP2B10 worked out at 44.3 ng/mL.

On to `N[C@@H](CCC(=O)O)C(=O)[O-].[Na+]` [Monosodium glutamate], for which the “Limits of detection CYP3A4” value on CYP3A4 [3] worked out at 3.6 mg/mL.

As to `O=C([O-])c1ccccc1.[Na+]` [Sodium Benzoate], at CYP2B10, the “Limits of detection CYP2B10” value is 3.2e+06 ng/mL.

`O=NO` [Sodium Nitrite]: on CYP2B6 [4], the “Limits of detection CYP2B6” value amounted to 2.3 mg/mL.

Turning to `C=CCC(=C)/C=C/[C@@](C)(O)[C@H]1O[C@@H]2C[C@@H]3O[C@@H]4C[C@@H]5O[C@@H]6C[C@@H]7O[C@@H]8C[C@@H]9O[C@@H]%10C[C@@H]%11O[C@](C)(CCOS(=O)(=O)O)[C@@H](OS(=O)(=O)O)C[C@H]%11O[C@H]%10C[C@H]9O[C@H]8CC[C@@]7(C)O[C@@]6(C)CC[C@H](C)[C@H]5O[C@H]4C[C@@]3(C)O[C@H]2CC1=C` [Yessotoxin], in the data set on CYP1A2 and CYP2C19 (human), the Limit of detection came to 45 µg/L.

For the compound `c1ccc2cc3c(ccc4ccccc43)cc2c1` [benz(a)anthracene (BaA), benz(a)anthracene], the Limit of detection at CYP2B6 [5] (human) turned out to be 5 µg/L.

The compound `c1ccc2c(c1)cc1ccc3cccc4ccc2c1c34` [benzo(a)pyrene (BaP), benzo(a)pyrene] registered a Limit of detection at CYP2B6 [5] (setting [7]) of 15 µg/L.

In turn, `c1ccc2c(c1)-c1cccc3c1c-2cc1ccccc13` [benzo(b)fluoranthene (BbF), benzo(b)fluoranthene] had a Limit of detection at CYP2B6 [5] (setting [7]) of 20 µg/L.

At CYP2B6 [5] (setting [7]), `c1ccc2c(c1)ccc1c3ccccc3ccc21` [chrysene (Chrys), chrysene] came in with a Limit of detection of 10 µg/L.

In the case of Hexabromocyclododecane [HBCD], the Limit of detection at CYP3A4 [6] is recorded as 42.8 ng/mL; on CYP3A4 [2] (DBOMF substrate) it was 14 ng/mL. In addition, the “Inhibition percentage I (%)” value turned out to be 69.8% on CYP3A4 [2] (CYP3A4, 2 μM DBOMF, 50 ng/mL contaminant) and 84.3% on CYP3A4 [2] (CYP3A4, 2 μM DBOMF, 100 ng/mL contaminant).
